Measurements published in US10029992B2, “Diaminotriazine compounds and their use as herbicides” (BASF SE, priority 2014, dated 2018).

Experiments:
Assay in all cases: Greenhouse experiment, post-emergence treatment
Settings in all cases: post-emergence method, application rate 125 g/ha
ABUTH = assay type: in vivo, Abutilon theophrasti
Experimental: (§1) The seeds of the test plants were sown separately for each species. […] For this purpose, the test plants were either sown directly and grown in the same containers, or they were first grown separately as seedlings and transplanted into the test containers a few days prior to treatment. Depending on the species, the plants were kept at 10-25° C. or 20-35° C., respectively. The test period extended over 2 to 4 weeks. During this time, the plants were tended, and their response to the individual treatments was evaluated. Evaluation was carried out using a scale from 0 to 100. 100 means no emergence of the plants, or complete destruction of at least the aerial moieties, and 0 means no damage, or normal course of growth. A moderate herbicidal activity is given at values of at least 60, a good herbicidal activity is given at values of at least 70, and a very good herbicidal activity is given at values of at least 85. […] [table]

AMARE = assay type: in vivo, Amaranthus retroflexus
Experimental: as §1

SETFA = assay type: in vivo, Setaria faberi
Experimental: as §1

SMILES	herbicidal activity against ABUTH (ABUTH)	herbicidal activity against AMARE (AMARE)	herbicidal activity against SETFA (SETFA)
CC(C)(F)c1nc(N)nc(Nc2c(F)cccc2Oc2cc(Br)cc(Br)c2)n1 [Example 55]	very good (a very good herbicidal activity is given at values of at least 85)	very good (a very good herbicidal activity is given at values of at least 85)	very good (a very good herbicidal activity is given at values of at least 85)
CC(C)(F)c1nc(N)nc(Nc2c(F)cccc2Oc2cc(F)cc(Br)c2)n1 [Example 56]	good (a good herbicidal activity is given at values of at least 70)	very good (a very good herbicidal activity is given at values of at least 85)	very good (a very good herbicidal activity is given at values of at least 85)
COc1cc(Cl)cc(Oc2cccc(F)c2Nc2nc(N)nc(C(C)(C)F)n2)c1 [Example 57]	very good (a very good herbicidal activity is given at values of at least 85)	very good (a very good herbicidal activity is given at values of at least 85)	very good (a very good herbicidal activity is given at values of at least 85)
CC(C)(F)c1nc(N)nc(Nc2c(F)cccc2Oc2cc(Cl)cc(Br)c2)n1 [Example 58]	very good (a very good herbicidal activity is given at values of at least 85)	very good (a very good herbicidal activity is given at values of at least 85)	very good (a very good herbicidal activity is given at values of at least 85)
CC(C)(F)c1nc(N)nc(Nc2c(F)cccc2Oc2cc(F)cc(C#N)c2)n1 [Example 59]	very good (a very good herbicidal activity is given at values of at least 85)	very good (a very good herbicidal activity is given at values of at least 85)	very good (a very good herbicidal activity is given at values of at least 85)
CC(C)(F)c1nc(N)nc(Nc2c(F)cccc2Oc2cc(Br)cc(OC(F)(F)F)c2)n1 [Example 60]	very good (a very good herbicidal activity is given at values of at least 85)	very good (a very good herbicidal activity is given at values of at least 85)	very good (a very good herbicidal activity is given at values of at least 85)
COc1cc(Br)cc(Oc2cccc(F)c2Nc2nc(N)nc(C(C)(C)F)n2)c1 [Example 61]	very good (a very good herbicidal activity is given at values of at least 85)	very good (a very good herbicidal activity is given at values of at least 85)	very good (a very good herbicidal activity is given at values of at least 85)
COc1cc(F)cc(Oc2cccc(F)c2Nc2nc(N)nc(C(C)(C)F)n2)c1 [Example 62]	very good (a very good herbicidal activity is given at values of at least 85)	very good (a very good herbicidal activity is given at values of at least 85)	very good (a very good herbicidal activity is given at values of at least 85)
